We go through 17 compounds from ChEMBL document CHEMBL4024718, “Design and synthesis of quinazolinones as EGFR inhibitors to overcome EGFR resistance obstacle” (Bioorg Med Chem, 2017).

The structures appear in SMILES notation.

Data set [1] has as its system A549. Description: Antiproliferative activity against human A549 cells harboring wild type EGFR after 48 hrs by SRB assay. The following applies: A549, 48 h. The class given is cell-based.
Data set [2] relates to NCI-H1975. The data set can be described thus: cells. It is filed as functional, cell-based. The settings on record: Homo sapiens, NCI-H1975, 48 h.
Data set [3] deals with HT-29. The data set can be described thus: Antiproliferative activity against non-special gene type human HT-29 cells after 48 hrs by SRB assay. It is filed as cell-based. The following applies: HT-29, 48 h. In general terms: In SRB staining, fixed cells bind dye roughly in proportion to their protein.
Data set [4] has as its target Epidermal growth factor receptor (Homo sapiens, UniProt P00533). Description: Inhibition of human EGFR preincubated for 5 mins with substrate followed by ATP addition measured after 30 mins by HTRF method. It is filed as ADME. On the technique in general: Time-resolved FRET reads energy transfer from a long-lived donor to a nearby acceptor.
Data set [5] has as its target Epidermal growth factor receptor (Homo sapiens, UniProt P00533, T790M).
The target in data set [6] is Insulin-like growth factor 1 receptor (Homo sapiens) (UniProt P08069). Description: Inhibition of N-terminal 6His-tagged recombinant human IGF-1R (959 to end residues) expressed in baculovirus infected Sf21 insect cells at 3 uM relative to control.
Data set [7] has as its target Insulin receptor (Homo sapiens) (UniProt P06213). Description: Inhibition of N-terminal 6His-tagged recombinant human insulin receptor (1005 to 1310 residues) expressed in baculovirus infected Sf21 insect cells at 3 uM relative to control.
Data set [8] addresses Focal adhesion kinase 1 (Homo sapiens) (UniProt Q05397). Description: Inhibition of N-terminal 6His-tagged recombinant human FAK (411 to 686 residues) expressed in baculovirus infected Sf21 insect cells at 3 uM relative to control.
For data set [9], the target named is 5'-AMP-activated protein kinase catalytic subunit alpha-1 (Homo sapiens) (UniProt Q13131). The data set can be described thus: Inhibition of full length recombinant human C-terminal His-tagged AMPKalpha1 expressed in Spodoptera frugiperda insect cells at 3 uM relative to control.
Data set [10] addresses Mast/stem cell growth factor receptor Kit (Homo sapiens) (UniProt P10721). Description: Inhibition of N-terminal GST tagged recombinant human c-Kit (544 to end residues) expressed in baculovirus infected Sf21 insect cells at 3 uM relative to control.
Data set [11] has as its target Receptor-type tyrosine-protein kinase FLT3 (Homo sapiens) (UniProt P36888). Description: Inhibition of N-terminal GST tagged recombinant human Flt3 (564 to end residues) at 3 uM relative to control.
In data set [12] the target is Aurora kinase A (Homo sapiens) (UniProt O14965). The data set can be described thus: Inhibition of N-terminal His6-tagged recombinant full-length human Aurora A expressed in Sf21 insect cells at 3 uM relative to control.
For data set [13], the target named is Vascular endothelial growth factor receptor 2 (Homo sapiens) (UniProt P35968). Description: Inhibition of recombinant human VEGFR-2 at 3 uM relative to control.
Data set [14] deals with EGFR (epidermal growth factor receptor) kinase domain (Homo sapiens, UniProt P00533). Description: Inhibition of N-terminal GST-tagged human EGFR kinase domain (696 to end residues) expressed in baculovirus infected Sf21 insect cells at 3 uM relative to control.
The target of data set [15] is Tyrosine-protein kinase Blk (Homo sapiens) (UniProt P51451). The data set can be described thus: Inhibition of human N-terminal His6 tagged recombinant full-length human Blk expressed in Sf21 insect cells at 3 uM relative to control.
Data set [16] has as its target Fibroblast growth factor receptor 1 (Homo sapiens) (UniProt P11362). The data set can be described thus: Inhibition of N-terminal GST-tagged recombinant human FGFR1 (456 to 765 residues) expressed in baculovirus infected Sf21 insect cells at 3 uM relative to control.
The target in data set [17] is Dual specificity mitogen-activated protein kinase kinase 1 (Homo sapiens) (UniProt Q02750). The data set can be described thus: Inhibition of recombinant human N-terminal GST-fused MEK1 expressed in Escherichia coli at 3 uM relative to control.
In data set [18] the target is LKB1-STRAD-MO25 complex (Homo sapiens) (UniProt Q15831+Q7RTN6+Q9Y376). Description: Inhibition of recombinant full-length N-terminal 6-His-tagged human LKB1/GST-tagged MO25alpha/GST-tagged STRADalpha expressed in SF21 cells at 3 uM relative to control.
The target of data set [19] is Hepatocyte growth factor receptor (Homo sapiens) (UniProt P08581). The data set can be described thus: Inhibition of N-terminal His6-tagged recombinant human Met (974 to end residues) expressed in baculovirus infected Sf21 insect cells at 3 uM relative to control.
The target in data set [20] is Vascular endothelial growth factor receptor 1 (Homo sapiens) (UniProt P17948). The data set can be described thus: Inhibition of recombinant human VEGFR-1 expressed in Spodoptera frugiperda insect cells at 3 uM relative to control.
In data set [21] the target is Tyrosine-protein kinase SYK (Homo sapiens) (UniProt P43405). The data set can be described thus: Inhibition of recombinant full length N-terminal His6-tagged human SYK expressed in baculovirus infected Sf21 insect cells at 3 uM relative to control.
For data set [22], the target named is Cyclin-dependent kinase 1/cyclin B1 (Homo sapiens) (UniProt P06493+P14635). The data set can be described thus: Inhibition of C-terminal His6-tagged human full length Cdk1/N-terminal GST-tagged human full length Cyclin B expressed in baculovirus infected Sf21 insect cells at 3 uM relative to control.
Data set [23] addresses Tyrosine-protein kinase ABL1 (Homo sapiens) (UniProt P00519). Description: Inhibition of N-terminal His6-tagged recombinant human Abl (27 to end residues) expressed in baculovirus infected Sf21 insect cells at 3 uM relative to control.
In data set [24] the target is Tyrosine-protein kinase JAK2 (Homo sapiens) (UniProt O60674). The data set can be described thus: Inhibition of C-terminal His6-tagged recombinant human JAK2 (808 to end residue) expressed in baculovirus infected Sf21 insect cells at 3 uM relative to control.

Chain of Epidermal growth factor receptor (Homo sapiens, UniProt P00533) (P00533 whole entry): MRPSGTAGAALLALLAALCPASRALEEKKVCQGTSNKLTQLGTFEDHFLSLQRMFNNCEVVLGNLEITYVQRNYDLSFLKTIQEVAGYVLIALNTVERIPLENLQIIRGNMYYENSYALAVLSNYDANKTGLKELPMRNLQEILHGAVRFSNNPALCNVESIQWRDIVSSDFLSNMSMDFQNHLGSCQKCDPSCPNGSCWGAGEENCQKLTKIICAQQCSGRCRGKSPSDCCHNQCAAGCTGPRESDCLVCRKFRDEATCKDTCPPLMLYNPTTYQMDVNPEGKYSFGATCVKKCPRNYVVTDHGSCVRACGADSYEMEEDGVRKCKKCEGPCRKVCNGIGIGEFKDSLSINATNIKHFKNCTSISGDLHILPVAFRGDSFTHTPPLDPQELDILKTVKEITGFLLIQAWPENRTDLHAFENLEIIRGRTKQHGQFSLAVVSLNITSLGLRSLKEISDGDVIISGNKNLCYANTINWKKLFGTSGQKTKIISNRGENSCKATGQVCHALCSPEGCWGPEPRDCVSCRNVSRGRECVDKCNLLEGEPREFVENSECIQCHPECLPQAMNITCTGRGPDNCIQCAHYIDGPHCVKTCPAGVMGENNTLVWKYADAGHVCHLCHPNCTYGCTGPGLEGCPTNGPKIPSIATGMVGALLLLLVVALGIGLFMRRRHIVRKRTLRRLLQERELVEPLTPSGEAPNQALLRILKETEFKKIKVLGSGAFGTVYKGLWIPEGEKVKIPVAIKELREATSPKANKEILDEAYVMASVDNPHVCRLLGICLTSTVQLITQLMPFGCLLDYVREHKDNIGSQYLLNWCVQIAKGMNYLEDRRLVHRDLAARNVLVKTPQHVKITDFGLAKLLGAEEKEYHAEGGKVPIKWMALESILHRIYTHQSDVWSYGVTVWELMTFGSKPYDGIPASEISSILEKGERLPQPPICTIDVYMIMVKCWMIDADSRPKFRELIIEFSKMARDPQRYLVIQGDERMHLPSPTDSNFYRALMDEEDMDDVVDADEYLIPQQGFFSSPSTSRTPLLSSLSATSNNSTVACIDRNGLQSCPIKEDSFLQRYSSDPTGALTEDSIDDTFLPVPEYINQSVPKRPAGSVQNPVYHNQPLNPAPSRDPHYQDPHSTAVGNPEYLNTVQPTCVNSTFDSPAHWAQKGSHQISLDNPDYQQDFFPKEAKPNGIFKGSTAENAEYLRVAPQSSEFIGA
Chain of Epidermal growth factor receptor (Homo sapiens, UniProt P00533, T790M) (P00533 25-1210 T790M limits assumed): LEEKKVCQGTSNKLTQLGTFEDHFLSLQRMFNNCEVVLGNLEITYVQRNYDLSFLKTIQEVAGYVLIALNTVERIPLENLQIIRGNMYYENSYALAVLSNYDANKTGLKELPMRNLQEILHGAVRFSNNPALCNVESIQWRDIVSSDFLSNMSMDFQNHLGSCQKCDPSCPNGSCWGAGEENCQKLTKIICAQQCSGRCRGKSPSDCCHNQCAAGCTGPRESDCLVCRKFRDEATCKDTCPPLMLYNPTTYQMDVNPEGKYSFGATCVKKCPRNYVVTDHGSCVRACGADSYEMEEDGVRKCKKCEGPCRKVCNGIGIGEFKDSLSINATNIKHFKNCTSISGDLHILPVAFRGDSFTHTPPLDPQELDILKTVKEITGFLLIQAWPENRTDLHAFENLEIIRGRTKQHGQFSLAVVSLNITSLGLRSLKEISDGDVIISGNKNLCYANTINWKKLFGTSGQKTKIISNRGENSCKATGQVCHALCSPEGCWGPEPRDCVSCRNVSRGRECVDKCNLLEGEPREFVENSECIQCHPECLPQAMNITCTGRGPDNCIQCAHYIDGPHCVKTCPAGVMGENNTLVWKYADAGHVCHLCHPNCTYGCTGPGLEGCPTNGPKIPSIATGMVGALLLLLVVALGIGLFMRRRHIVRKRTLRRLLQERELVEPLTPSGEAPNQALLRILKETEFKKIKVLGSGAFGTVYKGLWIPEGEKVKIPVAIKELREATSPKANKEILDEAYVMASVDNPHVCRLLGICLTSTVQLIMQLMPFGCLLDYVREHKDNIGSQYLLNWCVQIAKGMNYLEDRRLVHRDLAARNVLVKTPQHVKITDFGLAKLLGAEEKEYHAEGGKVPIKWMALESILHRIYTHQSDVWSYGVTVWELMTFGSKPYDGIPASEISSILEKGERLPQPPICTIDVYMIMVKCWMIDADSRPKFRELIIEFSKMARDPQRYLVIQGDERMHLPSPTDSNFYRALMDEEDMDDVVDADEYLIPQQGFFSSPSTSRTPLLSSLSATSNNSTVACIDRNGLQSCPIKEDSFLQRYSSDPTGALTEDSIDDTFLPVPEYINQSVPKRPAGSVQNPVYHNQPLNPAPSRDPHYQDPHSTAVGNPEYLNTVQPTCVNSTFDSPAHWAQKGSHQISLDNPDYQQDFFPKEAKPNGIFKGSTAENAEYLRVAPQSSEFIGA
Chain of EGFR (epidermal growth factor receptor) kinase domain (P00533 whole entry, the tested form may be a part): as the sequence (P00533 whole entry) above
Chain of Cyclin-dependent kinase 1/cyclin B1 (Homo sapiens) (P06493 whole entry, looked up): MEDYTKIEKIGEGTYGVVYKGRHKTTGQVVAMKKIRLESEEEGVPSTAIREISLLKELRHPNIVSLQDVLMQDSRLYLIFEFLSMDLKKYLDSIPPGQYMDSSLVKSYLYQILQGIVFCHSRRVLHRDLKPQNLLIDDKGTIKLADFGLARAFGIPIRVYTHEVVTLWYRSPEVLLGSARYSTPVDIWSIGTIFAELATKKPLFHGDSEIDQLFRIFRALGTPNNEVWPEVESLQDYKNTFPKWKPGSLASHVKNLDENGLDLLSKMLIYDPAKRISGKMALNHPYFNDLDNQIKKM
Chain of Cyclin-dependent kinase 1/cyclin B1 (Homo sapiens) (P14635 whole entry, looked up): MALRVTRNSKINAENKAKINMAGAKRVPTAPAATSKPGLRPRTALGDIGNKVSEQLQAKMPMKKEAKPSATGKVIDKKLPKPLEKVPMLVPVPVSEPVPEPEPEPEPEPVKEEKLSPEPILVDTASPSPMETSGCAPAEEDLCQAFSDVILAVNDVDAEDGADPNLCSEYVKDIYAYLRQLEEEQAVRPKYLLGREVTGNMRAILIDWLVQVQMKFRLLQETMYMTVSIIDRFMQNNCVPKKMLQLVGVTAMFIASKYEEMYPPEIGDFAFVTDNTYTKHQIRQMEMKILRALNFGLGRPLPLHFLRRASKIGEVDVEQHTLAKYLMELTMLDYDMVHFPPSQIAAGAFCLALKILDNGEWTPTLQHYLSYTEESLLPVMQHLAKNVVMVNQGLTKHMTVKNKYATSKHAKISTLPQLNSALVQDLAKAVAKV
Chain of Aurora kinase A (Homo sapiens) (O14965 whole entry): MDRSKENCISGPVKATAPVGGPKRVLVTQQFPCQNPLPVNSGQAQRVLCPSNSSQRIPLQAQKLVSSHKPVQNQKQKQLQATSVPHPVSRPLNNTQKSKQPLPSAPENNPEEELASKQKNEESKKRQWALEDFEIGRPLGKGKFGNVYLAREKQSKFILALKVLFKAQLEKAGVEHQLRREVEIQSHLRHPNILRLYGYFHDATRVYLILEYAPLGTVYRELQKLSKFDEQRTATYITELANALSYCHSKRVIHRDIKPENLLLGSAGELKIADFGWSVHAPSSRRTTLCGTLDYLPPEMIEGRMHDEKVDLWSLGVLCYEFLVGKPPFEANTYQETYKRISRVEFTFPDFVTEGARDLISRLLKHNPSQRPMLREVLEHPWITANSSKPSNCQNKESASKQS

`Cc1nnc(-n2c(-c3ccccc3)nc3cc(Cl)ccc3c2=O)s1`: the IC50 is 3790 nM in [1], 760 nM in data set [2] and 21200 nM in [3].
In the case of `O=C(Nc1cc(Cl)ccc1C(=O)NCc1ccccc1)c1ccccc1`, the IC50 in data set [1] amounted to 1570 nM; in [2], 1670 nM; in [3], 4800 nM.
With `O=c1c2ccc(Cl)cc2nc(-c2ccccc2)n1-c1nnc(-c2ccccc2)s1`, the IC50 amounted to 2090 nM in data set [1]; 213 nM in data set [2]; 2720 nM in [3]; 1680 nM in data set [4]; 1120 nM in [5].
In the case of `O=c1c2ccccc2nc(-c2ccccc2)n1-c1ccc(F)c(Cl)c1`, the IC50 in data set [1] stood at 5420 nM; in [2], 4890 nM; in data set [3], 6120 nM.
On to `O=c1c2ccc(Cl)cc2nc(-c2ccccc2)n1-c1cccnc1`, for which the IC50 was 3330 nM in data set [1], 2450 nM in data set [2] and 3800 nM in data set [3].
Turning to `O=c1c2ccccc2nc(-c2ccccc2)n1-c1nnc(C2CC2)s1`, the IC50 was found to be 3020 nM in [1], 2380 nM in [2] and 3460 nM in [3].
In the case of `O=c1c2ccccc2nc(-c2ccccc2)n1-c1nnc(-c2ccccc2Cl)s1`, the IC50 in [1] was 100000 nM; in [2], 5230 nM; in data set [3], 32500 nM; in data set [4] it was 78200 nM; in data set [5], 7230 nM.
Turning to `O=c1c2ccc(Cl)cc2nc(-c2ccccc2)n1-c1cccc(Cl)c1`, the results for the IC50 in data set [1], in data set [2] and in data set [3] were 5300 nM, 2450 nM and 4500 nM, respectively.
With `O=C(Nn1c(-c2ccccc2)nc2ccccc2c1=O)c1ccc(Br)cc1`, the IC50 came out at 523 nM in data set [1]; 810 nM in data set [2]; 1150 nM in [3]; 420 nM in data set [4]; 780 nM in data set [5].
The like results for `NCCn1c(-c2ccccc2)nc2cc(Cl)ccc2c1=O` were, in that order, 2450 nM, 378 nM, 428 nM, 2110 nM and 287 nM.
In the case of `O=C(Nc1cc(Cl)ccc1C(=O)Nc1ccc(F)cc1)c1ccccc1`, the figures for the IC50 in data set [1], in [2] and in data set [3] were 17400 nM, 14400 nM and 3360 nM, respectively.
Take `Nc1ccccc1-n1c(-c2ccccc2)nc2cc(Cl)ccc2c1=O`: the IC50 in data set [1] was determined as 18300 nM; in [2] it was 4870 nM; in data set [3] it was 50000 nM.
Take `COc1ccc(-n2c(-c3ccccc3)nc3cc(Cl)ccc3c2=O)cc1`: the IC50 in [1] came out at 2870 nM; in data set [2], 2880 nM; in data set [3], 3920 nM.
In the case of `CC(=O)c1ccccc1-n1c(-c2ccccc2)nc2cc(Cl)ccc2c1=O`, the IC50 in [1] is 50000 nM; in data set [2], 846 nM; in data set [3] it was 50000 nM; in data set [4] it was 34300 nM; in data set [5] it was 720 nM.
The compound `C=CC(=O)Nc1cccc(Oc2nc(Nc3ccc(N4CCN(C)CC4)cc3OC)ncc2Cl)c1` came in with an IC50 in data set [1] of 1870 nM. This lies in the single-digit micromolar range.
Turning to `COc1ccc(-c2nnc(-n3c(-c4ccccc4)nc4cc(Cl)ccc4c3=O)s2)cc1`, the IC50 in data set [1] amounted to 390 nM; in data set [2], 31 nM; in data set [3], 388 nM; in data set [4], 320 nM; in data set [5], 21 nM. Also, the inhibition amounted to 10% in [6]; 0% in data set [7]; 0% in [8]; 0% in data set [9]; 0% in data set [10]; 0% in [11]. The inhibition in [12] was found to be 0%; in [13], 42%; in data set [15], 0%; in data set [16], 0%; in data set [17], 0%; in [18], 0%. Also, the inhibition in data set [19] was 0%; in [20] it was 0 to 34%; in data set [21], 0%; in data set [22], 0%; in [23], 0%; in data set [24] it was 0%. This compound came in with an inhibition at 3 µM in data set [14] of 78%.
With `O=c1c2ccc(Cl)cc2nc(-c2ccccc2)n1-c1nnc(C2CC2)s1`, the IC50 in [1] is 717 nM; in [2] it was 129 nM; in data set [3], 732 nM; in [4] it was 530 nM; in data set [5] it was 102 nM.

As a reminder, the IC50 is the point on the concentration scale where inhibition reaches its midpoint. A lower IC50 goes with higher potency. By inhibition is commonly meant the percentage by which the read-out fell short of the control.
